# In the supplement of paper PMC10307832:
# Columns and labels:
# Test in all cases: relative viability (nuclei count vs DMSO), 5 days (fraction); higher = more cells survive
# LU99A = system: LU99A
# In short: (§1)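 Lung cancer cell lines in 1536-well plates got either a single drug or a fixed anchor-drug dose together with five library-drug doses (not always all listed) in √10 steps, by pin tool, on the day after seeding. Nuclei were counted after 5 days, and relative viability is the treated-to-vehicle ratio of nuclei counts. Values are medians of duplicate plates.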
# NCI-H1651 = system: NCI-H1651
# In short: as §1
# NCI-H2085 = system: NCI-H2085
# In short: as §1
# NCI-H596 = system: NCI-H596
# In short: as §1
# NCI-H1755 = system: NCI-H1755
# In short: as §1
# HCC-78 = system: HCC-78
# In short: as §1
# NCI-H3122 = system: NCI-H3122
# In short: as §1
# NCI-H322M = system: NCI-H322M
# In short: as §1
# PC-3 [JPC-3] = system: PC-3 [JPC-3]
# In short: as §1
# COR-L23 = system: COR-L23
# In short: as §1
# NCI-H522 = system: NCI-H522
# In short: as §1
# NCI-H460 = system: NCI-H460
# In short: as §1
# H3255 = system: H3255
# In short: as §1
# 201T = system: 201T
# In short: as §1
# NCI-H1650 = system: NCI-H1650
# In short: as §1
# NCI-H2087 = system: NCI-H2087
# In short: as §1
# NCI-H358 = system: NCI-H358
# In short: as §1
# NCI-H650 = system: NCI-H650
# In short: as §1
# SK-LU-1 = system: SK-LU-1
# In short: as §1
# HARA = system: HARA
# In short: as §1
# NCI-H23 = system: NCI-H23
# In short: as §1
# HCC-366 = system: HCC-366
# In short: as §1
# NCI-H1793 = system: NCI-H1793
# In short: as §1
smiles,measurement,setting,value
Cc1csc(=NC2CCCCC2)n1/N=C/c1ccc(O)c(O)c1O [MIM1] + CC(=O)Nc1cccc(-n2c(=O)n(C3CC3)c(=O)c3c(Nc4ccc(I)cc4F)n(C)c(=O)c(C)c32)c1 [Trametinib] (partner 0.02 µM),relative viability,LU99A; first compound 0.2 µM,0.571
same,relative viability,LU99A; first compound 0.6325 µM,0.611
same,relative viability,LU99A; first compound 2 µM,0.604
same,relative viability,LU99A; first compound 6.325 µM,0.469
same,relative viability,LU99A; first compound 20 µM,0.164
same,relative viability,NCI-H1651; first compound 0.2 µM,0.856
same,relative viability,NCI-H1651; first compound 0.6325 µM,0.9
same,relative viability,NCI-H1651; first compound 2 µM,0.866
same,relative viability,NCI-H1651; first compound 6.325 µM,0.728
same,relative viability,NCI-H1651; first compound 20 µM,0.843
same,relative viability,NCI-H2085; first compound 0.2 µM,0.619
same,relative viability,NCI-H2085; first compound 0.6325 µM,0.512
same,relative viability,NCI-H2085; first compound 2 µM,0.62
same,relative viability,NCI-H2085; first compound 6.325 µM,0.436
same,relative viability,NCI-H2085; first compound 20 µM,0.406
same,relative viability,NCI-H596; first compound 0.2 µM,0.702
same,relative viability,NCI-H596; first compound 0.6325 µM,0.95
same,relative viability,NCI-H596; first compound 2 µM,0.745
same,relative viability,NCI-H596; first compound 6.325 µM,0.667
same,relative viability,NCI-H596; first compound 20 µM,0.56
same,relative viability,NCI-H1755; first compound 0.2 µM,0.719
same,relative viability,NCI-H1755; first compound 0.6325 µM,0.778
same,relative viability,NCI-H1755; first compound 2 µM,0.808
same,relative viability,NCI-H1755; first compound 6.325 µM,0.7
same,relative viability,NCI-H1755; first compound 20 µM,0.382
same,relative viability,HCC-78; first compound 0.2 µM,0.75
same,relative viability,HCC-78; first compound 2 µM,0.778
same,relative viability,HCC-78; first compound 6.325 µM,0.556
same,relative viability,HCC-78; first compound 20 µM,1.15
same,relative viability,NCI-H3122; first compound 0.2 µM,0.239
same,relative viability,NCI-H3122; first compound 0.6325 µM,0.244
same,relative viability,NCI-H3122; first compound 2 µM,0.261
same,relative viability,NCI-H3122; first compound 6.325 µM,0.302
same,relative viability,NCI-H3122; first compound 20 µM,0.125
same,relative viability,NCI-H322M; first compound 0.2 µM,0.508
same,relative viability,NCI-H322M; first compound 0.6325 µM,0.596
same,relative viability,NCI-H322M; first compound 2 µM,0.456
same,relative viability,NCI-H322M; first compound 6.325 µM,0.526
same,relative viability,NCI-H322M; first compound 20 µM,0.577
same,relative viability,PC-3 [JPC-3]; first compound 0.2 µM,0.643
same,relative viability,PC-3 [JPC-3]; first compound 0.6325 µM,0.687
same,relative viability,PC-3 [JPC-3]; first compound 2 µM,0.655
same,relative viability,PC-3 [JPC-3]; first compound 6.325 µM,0.521
same,relative viability,PC-3 [JPC-3]; first compound 20 µM,0.558
same,relative viability,COR-L23; first compound 0.2 µM,0.509
same,relative viability,COR-L23; first compound 0.6325 µM,0.619
same,relative viability,COR-L23; first compound 2 µM,0.571
same,relative viability,COR-L23; first compound 6.325 µM,0.388
same,relative viability,COR-L23; first compound 20 µM,0.306
same,relative viability,NCI-H522; first compound 0.2 µM,0.727
same,relative viability,NCI-H522; first compound 0.6325 µM,0.654
same,relative viability,NCI-H522; first compound 2 µM,0.834
same,relative viability,NCI-H522; first compound 6.325 µM,0.897
same,relative viability,NCI-H522; first compound 20 µM,0.675
same,relative viability,NCI-H460; first compound 0.2 µM,0.103
same,relative viability,NCI-H460; first compound 0.6325 µM,0.136
same,relative viability,NCI-H460; first compound 2 µM,0.118
same,relative viability,NCI-H460; first compound 6.325 µM,0.0462
same,relative viability,NCI-H460; first compound 20 µM,0.0293
same,relative viability,H3255; first compound 0.2 µM,0.578
same,relative viability,H3255; first compound 0.6325 µM,0.618
same,relative viability,H3255; first compound 2 µM,0.56
same,relative viability,H3255; first compound 6.325 µM,0.529
same,relative viability,H3255; first compound 20 µM,0.293
same,relative viability,201T; first compound 0.2 µM,0.704
same,relative viability,201T; first compound 0.6325 µM,0.701
same,relative viability,201T; first compound 2 µM,0.736
same,relative viability,201T; first compound 6.325 µM,0.605
same,relative viability,201T; first compound 20 µM,0.761
same,relative viability,NCI-H1650; first compound 0.2 µM,0.697
same,relative viability,NCI-H1650; first compound 0.6325 µM,0.619
same,relative viability,NCI-H1650; first compound 2 µM,0.424
same,relative viability,NCI-H1650; first compound 6.325 µM,0.182
same,relative viability,NCI-H1650; first compound 20 µM,0.138
same,relative viability,NCI-H2087; first compound 0.2 µM,0.293
same,relative viability,NCI-H2087; first compound 0.6325 µM,0.227
same,relative viability,NCI-H2087; first compound 2 µM,0.197
same,relative viability,NCI-H2087; first compound 6.325 µM,0.175
same,relative viability,NCI-H2087; first compound 20 µM,0.202
same,relative viability,NCI-H358; first compound 0.2 µM,0.149
same,relative viability,NCI-H358; first compound 0.6325 µM,0.15
same,relative viability,NCI-H358; first compound 2 µM,0.119
same,relative viability,NCI-H358; first compound 6.325 µM,0.116
same,relative viability,NCI-H358; first compound 20 µM,0.133
same,relative viability,NCI-H650; first compound 0.2 µM,1.02
same,relative viability,NCI-H650; first compound 0.6325 µM,0.946
same,relative viability,NCI-H650; first compound 2 µM,1.07
same,relative viability,NCI-H650; first compound 6.325 µM,0.939
same,relative viability,NCI-H650; first compound 20 µM,0.647
same,relative viability,SK-LU-1; first compound 0.2 µM,0.471
same,relative viability,SK-LU-1; first compound 0.6325 µM,0.528
same,relative viability,SK-LU-1; first compound 2 µM,0.516
same,relative viability,SK-LU-1; first compound 6.325 µM,0.459
same,relative viability,SK-LU-1; first compound 20 µM,0.202
same,relative viability,HARA; first compound 0.2 µM,0.707
same,relative viability,HARA; first compound 0.6325 µM,0.608
same,relative viability,HARA; first compound 2 µM,0.641
same,relative viability,HARA; first compound 6.325 µM,0.216
same,relative viability,HARA; first compound 20 µM,0.173
same,relative viability,NCI-H23; first compound 0.2 µM,0.407
same,relative viability,NCI-H23; first compound 0.6325 µM,0.342
same,relative viability,NCI-H23; first compound 2 µM,0.326
same,relative viability,NCI-H23; first compound 6.325 µM,0.312
same,relative viability,NCI-H23; first compound 20 µM,0.163
same,relative viability,HCC-366; first compound 0.2 µM,0.321
same,relative viability,HCC-366; first compound 2 µM,0.3
same,relative viability,HCC-366; first compound 6.325 µM,0.0405
same,relative viability,HCC-366; first compound 20 µM,0.0273
same,relative viability,NCI-H1793; first compound 0.2 µM,0.397
same,relative viability,NCI-H1793; first compound 2 µM,0.409
same,relative viability,NCI-H1793; first compound 6.325 µM,0.411
same,relative viability,NCI-H1793; first compound 20 µM,0.408
